Source: US6184246A, “Inhibition of cytokine production by polymethoxylated flavones” (priority 1999, dated 2001)
Like-named read-outs stand apart in the source and are kept apart here.

What was measured:
human monocytes = assay: Cytotoxicity by LDH content of monocyte lysates
Protocol: (§1) To measure the impact of the flavones on cytokine production, PBMCs were resuspended to 4×10^6 /mL in complete medium, i.e., Dulbecco's Modified Eagle Medium containing 30% FCS, 2 mM glutamine, 100 U/mL Penicillin-G, and 100 μg/mL streptomycin. […] Nonadherent cells (lymphocytes) were separated from the plastic adherent cells (monocytes) by washing the wells twice with 200 μL of medium. The monocytes were cultured an additional 30 min in 100 μL of complete medium containing graded concentrations of the compound of interest and the cultures were then adjusted to contain […] LPS to stimulate cytokine production. Culture supernatants were harvested 14 h later, and cells were lysed by addition of 50 μL of Dulbecco's phosphate buffered saline containing 1% NP40. Culture supernatants were evaluated for TNFα, IL-1β, IL-6, IL-8, IL-10, and MIP-1α content using specific enzyme-linked immunosorbent assays (ELISA) purchased from R&D Systems. IL-1β was measured in cell lysates by ELISA. Lactate dehydrogenase (LDH) content of cell lysates was measured to determine compound effects on cell viability: To 50 μL of lysate were added 200 μL of 50 mM sodium pyrophosphate buffer (pH 8.9) containing 50 mM lactic acid and 4 mg/mL β-nicotinamide adenine dinucleotide (Sigma); rates of reduction of nicotinamide adenine dinucleotide were measured at room temperature at 340 nm.

TNFα = TNFα production by LPS-stimulated human monocytes (ELISA); type: cell-based; details: for inhibition of TNFα production (in words): LPS-stimulated human monocytes; for IC50: read-out: IC50 for inhibition of TNFα production
Protocol: Isolation of human peripheral blood monocytes: Peripheral blood mononuclear cells (PBMCs) were isolated from residual source leukocytes (Bonfils Blood Center, CO) by density gradient centrifugation using Ficoll-Paque Plus (Pharmacia, Sweden).
as §1

IL-1β = IL-1β production by LPS-stimulated human monocytes (ELISA, cell lysates); type: cell-based; details: cytokine suppression profile, HMF compared against IBMX (Table 2)
Protocol: (§2) Adherent purified human monocytes were cultured in the presence of graded concentrations of heptamethoxyflavone for 30 min. The monocyte cultures were then adjusted to contain 20 ng/mL LPS. After 14 h of culture, the cytokines TNFα, IL-6, IL-8, MIP-1α, and IL-10 were assayed in the culture supernatants and IL-1β was assayed in the cell lysates using specific ELISA assays as described below. Values expressed as the percent of cytokine produced in flavone-free cultures are the means and standard errors determined using monocytes isolated from three independent donors.
(§3) Isolation of human peripheral blood monocytes: Peripheral blood mononuclear cells (PBMCs) were isolated from residual source leukocytes (Bonfils Blood Center, CO) by density gradient centrifugation using Ficoll-Paque Plus (Pharmacia, Sweden). Monocytes were purified further by plastic adherence (see below) or by centrifugal elutriation as described previously (Manthey, C. L., et al., J. Leuk Biol., 64: 409-416 (1998)).
(§4) IL-1β was measured in cell lysates by ELISA.

IL-6 = IL-6 production by LPS-stimulated human monocytes (ELISA); type: cell-based; details: cytokine suppression profile, HMF compared against IBMX (Table 2)
Protocol: as §2, §3, §4

IL-8 = IL-8 production by LPS-stimulated human monocytes (ELISA); type: cell-based; details: cytokine suppression profile, HMF compared against IBMX (Table 2)
Protocol: as §2, §3, §4

intracellular cAMP = assay: Cellular cAMP in human monocytes (EIA); type: cell-based; details: 30 min; for intracellular cAMP level: media alone 2.7±0.9
Protocol: To test flavones for the ability to cause an increase in cellular cAMP, monocytes were purified from PBMC by centrifugal elutriation. Monocytes were resuspended to 5×10^6 /mL in complete medium and 2 mL cell suspension were dispensed into FALCON 17×100 mm polypropylene culture tubes (Becton Dickinson). The cells were precultured 2 h at 37° C. and 5% CO2, and then cultured an additional 30 min following adjusting culture media to contain 100 μM of the flavone of interest or 200 μM IBMX (3-isobutyl-1-methylxanthine). Cells were then collected by centrifugation, lysed in 300 μL of ice cold aqueous solution containing 10 mM HEPES (pH 7.6) and 1% NP40. The lysates were applied to 100 mg columns of Amprep SAX resin (Amersham). The columns were then rinsed with 1 mL of methanol and the cAMP was eluted in 600 μL of methanol containing 0.01 M HCl. The eluates were chilled on dry ice and dried under vacuum. The Amersham Biotrak cAMP EIA assay was used to measure cAMP content of residues resuspended in 400 μL of assay buffer.

IL-10 = IL-10 production by LPS-stimulated human monocytes (ELISA); type: cell-based; details: LPS-stimulated human monocytes
Protocol: as §2, §3, §4

[1] = tested on: type-IV phosphodiesterase semi-purified from U937 cells; assay: Phosphodiesterase cAMP SPA enzyme assay; type: biochemical; details: hydrolysis of cAMP; read-out: concentration inhibiting phosphodiesterase activity 50%
Protocol: PDE semipurified from U937 monocytic cells was evaluated for the ability to catalyze the hydrolysis of cAMP in the presence of graded concentrations of flavone, myricetin, and HMF as described below. The rates are plotted as percent of control-reactions, where no flavonoids were present. Testing flavones as phosphodiesterase inhibitors and inducers of cellular cyclic adenosine monophosphate (cAMP): The Phosphodiesterase cAMP SPA Enzyme Assay (Amersham, Arlington Heights, Ill.) was used to test the ability of flavones to inhibit cAMP hydrolysis catalyzed by phosphodiesterase. The phosphodiesterase used in this study was semi-purified from U937 cells, and was determined to be mostly the type-IV isoform based on sensitivity to selected isoform inhibitors (Trophy, T. J., J. Pharmacol. Experimental Therapeutics, 1195-1205 (1992)).

[2] = human monocytes, LDH content of cell lysates
[3] = Monocyte, human monocytes, 30 min preculture with compound, LPS, 14 h, 30% FCS
[4] = human monocytes, 30 min preculture with compound, LPS, 14 h, 30% FCS

Row | Molecule | cytotoxicity towards cultured human monocytes (depletion of cellular LDH activity) (human monocytes) | inhibition of TNFα production (in words) (TNFα) | cytotoxicity towards cultured human monocytes (depletion of cellular LDH activity) (human monocytes; [2]) | further results
1 | O=c1c(O)c(-c2ccc(O)cc2)oc2cc(O)ccc12 [3,4,7-trihydroxyflavone] | lacked activity and any associated cytotoxicity | lacked activity | – | –
2 | O=c1c(O)c(-c2ccccc2)oc2ccccc12 [3-hydroxyflavone] | lacked activity and any associated cytotoxicity | lacked activity | – | –
3 | O=c1cc(-c2ccc(O)cc2)oc2ccc(O)c(O)c12 [4,5,6-trihydroxyflavone] | lacked activity and any associated cytotoxicity | lacked activity | – | –
4 | O=c1cc(-c2ccccc2)oc2cc(O)ccc12 [7-hydroxyflavone] | – | lacked activity | lacked activity and any associated cytotoxicity | –
5 | CC(C)Cn1c(=O)n(C)c(=O)c2[nH]cnc21 [IBMX, 3-isobutyl-1-methylxanthine] | – | – | – | suppression of IL-1β production (IL-1β): neither suppressed; suppression of IL-6 production (IL-6): neither suppressed; suppression of IL-8 production (IL-8): neither suppressed; increase of monocyte cAMP levels over media alone (in words) (intracellular cAMP; 200 μM): at least a doubling; intracellular cAMP level (intracellular cAMP; 200 μM): 8.3±1.9 pmol/10^7 cells; inhibition of IL-10 production (in words) (IL-10): did not inhibit
6 | O=c1cc(-c2ccccc2)oc2cc(O)c(O)c(O)c12 [baicalein] | lacked activity and any associated cytotoxicity | lacked activity | – | –
7 | Oc1cc(O)c2c(c1)OC(c1ccc(O)c(O)c1)C(O)C2 (centres unmarked) [catechin] | – | lacked activity | lacked activity and any associated cytotoxicity | –
8 | O=c1cc(-c2ccccc2)oc2cc(O)cc(O)c12 [chrysin] | – | lacked activity | lacked activity and any associated cytotoxicity | –
9 | COc1ccc(-c2cc(=O)c3c(O)cc(O[C@@H]4O[C@H](CO[C@@H]5O[C@@H](C)[C@H](O)[C@@H](O)[C@H]5O)[C@@H](O)[C@H](O)[C@H]4O)cc3o2)cc1O [diosmin] | – | – | no cytotoxicity | IC50 (TNFα; [3]): > 200 µM
10 | Oc1cc(O)c2c(c1)O[C@H](c1ccc(O)c(O)c1)[C@H](O)C2 [epicatechin] | lacked activity and any associated cytotoxicity | lacked activity | – | –
11 | O=C1C[C@@H](c2ccc(O)c(O)c2)Oc2cc(O)cc(O)c21 [eriodictyol] | lacked activity and any associated cytotoxicity | lacked activity | – | –
12 | O=c1c(O)c(-c2ccc(O)c(O)c2)oc2cc(O)ccc12 [fisetin] | – | lacked activity | lacked activity and any associated cytotoxicity | –
13 | O=C1CC(c2ccccc2)Oc2ccccc21 (centres unmarked) [flavanone] | – | lacked activity | lacked activity and any associated cytotoxicity | –
14 | O=c1cc(-c2ccccc2)oc2ccccc12 [flavone] | – | much less active | – | IC50 [1]: 11 µM; increase of monocyte cAMP levels over media alone (in words) (intracellular cAMP; 100 μM): much less; intracellular cAMP level (intracellular cAMP; 100 μM): 3.6±1.1 pmol/10^7 cells
15 | O=c1c(O)c(-c2ccccc2)oc2cc(O)cc(O)c12 [galagin] | – | lacked activity | lacked activity and any associated cytotoxicity | –
16 | O=c1c(O)c(-c2ccc(O)c(O)c2)oc2c(O)c(O)cc(O)c12 [gossypetin] | – | lacked activity | lacked activity and any associated cytotoxicity | –
17 | COc1ccc([C@@H]2CC(=O)c3c(O)cc(O)cc3O2)cc1O [hesperetin] | lacked activity and any associated cytotoxicity | lacked activity | – | –
18 | COc1ccc([C@@H]2CC(=O)c3c(O)cc(O[C@@H]4O[C@H](CO[C@@H]5O[C@@H](C)[C@H](O)[C@@H](O)[C@H]5O)[C@@H](O)[C@H](O)[C@H]4O)cc3O2)cc1O [hesperidin] | no cytotoxicity | – | – | IC50 (TNFα; Homo sapiens, Monocyte): > 200 µM
19 | O=c1cc(-c2ccc(O)cc2)oc2cc(O)c([C@@H]3O[C@H](CO)[C@@H](O)[C@H](O)[C@H]3O)c(O)c12 [isovitexin] | no cytotoxicity | – | – | IC50 (TNFα; [3]): > 200 µM
20 | C[C@@H]1O[C@@H](OC[C@H]2O[C@@H](Oc3cc(O)c4c(c3)O[C@H](c3ccc(O)cc3)CC4=O)[C@H](O)[C@@H](O)[C@@H]2O)[C@H](O)[C@H](O)[C@H]1O [narirutin] | no cytotoxicity | – | – | IC50 (TNFα; [3]): > 200 µM
21 | CC1OC(OCC2OC(Oc3c(-c4ccc(O)cc4)oc4cc(OC5OC(C)C(O)C(O)C5O)cc(O)c4c3=O)C(O)C(O)C2O)C(O)C(O)C1O (centres unmarked) [robinin] | – | lacked activity | lacked activity and any associated cytotoxicity | –
22 | COc1ccc(-c2cc(=O)c3c(OC)c(OC)c(OC)cc3o2)cc1 [tetra-O-methylscutellarein] | – | – | exception | –
23 | isomargaretin | no cytotoxicity | – | – | IC50 (TNFα; [4]): > 200 µM
24 | margaretin | no cytotoxicity | – | – | IC50 (TNFα; [4]): > 200 µM
